Laboratory results: US7105521B2, “Eugenosedin-A based pharmacoligical agents” (Syn-Tech Chem & Pharm Co., Ltd., priority 2003, dated 2006)

Assays:
[1] = test system: TNF-α; assay: Plasma cytokine immunoreactivity after LPS: TNF-α; type: in vivo, Wistar rats
Description: Plasma cytokine immunoreactivity and blood glucose. Blood was collected from venous cannula, injected into ice-cold heparinized Eppendorf tubes and centrifuged at 1500 rpm for 10 min at 4° C. Plasma supernatant was stored at −70° C. until analyzed. Solid phase enzyme immunoassay that specifically detects murine IL-1β, IL-6, IFN-γ and TNF-α was used with a detection limit of >10 pg/ml (Endogen, U.S.A). Pretreatment with eugenosedin-A and other agents was performed 15 minutes before intravenous injection of LPS. Blood was collected from venous cannula. Blood glucose was measured with a glucose test strip (Glucotide, Bayer, U.S.A) at 1, 3 and 5 hours.

[2] = biological target: T1, 5-HT re-uptake sites (Rattus norvegicus, UniProt P31652); assay: 5-HT re-uptake in cerebral cortex synaptosomes; type: biochemical, Wistar rats
T1 construct: the cerebral cortex or striatum was dissected and crude synaptosomes were prepared; from tissue; host or cells: crude synaptosomes of Wistar rat cerebral cortex
T1 sequence (P31652 whole entry): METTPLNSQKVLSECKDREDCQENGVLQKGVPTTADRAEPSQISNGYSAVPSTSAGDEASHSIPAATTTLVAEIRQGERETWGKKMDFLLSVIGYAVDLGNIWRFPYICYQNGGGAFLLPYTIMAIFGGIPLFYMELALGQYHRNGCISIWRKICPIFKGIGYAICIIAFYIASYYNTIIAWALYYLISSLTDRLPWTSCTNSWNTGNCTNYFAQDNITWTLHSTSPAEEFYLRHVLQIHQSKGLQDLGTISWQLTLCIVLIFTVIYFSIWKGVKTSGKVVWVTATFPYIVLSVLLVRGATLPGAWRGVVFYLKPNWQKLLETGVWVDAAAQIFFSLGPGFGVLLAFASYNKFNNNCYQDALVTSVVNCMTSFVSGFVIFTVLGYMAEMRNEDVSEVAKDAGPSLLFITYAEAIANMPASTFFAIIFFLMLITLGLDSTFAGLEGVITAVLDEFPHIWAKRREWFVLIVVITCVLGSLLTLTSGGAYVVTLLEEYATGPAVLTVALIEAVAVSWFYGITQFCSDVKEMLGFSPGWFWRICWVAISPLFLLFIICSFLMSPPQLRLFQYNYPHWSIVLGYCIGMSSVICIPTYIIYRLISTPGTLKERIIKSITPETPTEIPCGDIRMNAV
Description: Saline was added to the incubation mixture, which was then filtered through a Whatman GF/B glass filter under reduced pressure. To determine nonspecific uptake, incubation was performed at 0° C.

[3] = biological target: α2 receptors; assay: Receptor binding, [3H]yohimbine, rat cortex; set-up: species or system Wistar rat
Description: Drugs and chemicals. […] Eugenosedin-A synthesized in this laboratory was solvated in 50% absolute alcohol, 10% propylene glycol and further diluted with distilled water. All of the [^3H] ligand was purchased from New England Nuclear Corp. (Boston, Mass., U.S.A.).
Receptor binding studies. […] The homogenate was pressure filtered through muslin. Filtrate was centrifuged at 1000 g for 10 min. Supernatant was centrifuged at 10,000 g for 12 min at 4° C. The second supernatant was centrifuged at 30,000 g for 15 min at 4° C. The final pellet was re-suspended in assay buffer (75 mM Tris HCl, 25 mM MgCl2, pH 7.4). Protein content was determined by Bradford's method. Radioligand agents and membranes (200–300 μg) were incubated for 60 min at 25° C. with or without the addition of nonspecific binding agents, in a 75 mM Tris HCl buffer with 25 mM MgCl2, to make a final volume of 500 μl. In competitive-binding experiments, the competing agent was added directly to the incubation mixture. Incubation was terminated by addition of 1 ml of ice-cold assay buffer followed by immediate filtration through Whatman GF/C glass fiber filters supported on a 12-port filter manifold (Millipore). The filters were immediately washed 3 times with 5 ml of ice-cold assay buffer and dried in an oven at 60° C. for 2 hours before adding 5 ml of Triton-toluene-based scintillation fluid. Membrane-bound radioligand trapped in the filters was counted in a Beckman LS6500 scintillation system (Fullerton, Calif., U.S.A) with an efficiency of 45%. In each experiment, nonspecifically bound radioligand agents were determined by incubating membrane protein. Specific binding for each sample was obtained by deducting this value from the total binding of radioligand agents.

[4] = LPS-induced hypotension; type: in vivo, Wistar rats; conditions: LPS 10 mg kg^−1 i.v.
Description: Intravenous injection. The experiments were carried out as previously described (Wu B N. et al., Biochem. Pharmacol., 48:101–109, 1994). In brief, Wistar rats weighing 250–300 grams were anesthetized with pentobarbital sodium (50 mg kg^−1, i.p.). Following tracheal cannulation, systemic arterial BP and HR were recorded from the femoral artery by a pressure transducer (model P10EZ; Spectramed, Oxnard, Calif., U.S.A.) connected to a recorder (GOULD, Valley View, Ohio, Model P50). Body temperature was maintained at 37° C. by an electric heating pad. A femoral vein was cannulated for intravenous injection of drugs and LPS (10 mg kg^−1).

[5] = test system: α2-adrenergic receptors; assay: Clonidine-induced contraction of isolated rat thoracic aorta; type: cell-based; conditions: 10^−8, 10^−7, 10^−6 M
Excerpt: Isolation of rat thoracic aorta. Rat thoracic aorta was removed, cleaned of adhering fat and connective tissue and cut into 3–4 mm wide transverse rings.

[6] = test system: Fe2+-ascorbic acid-induced lipid peroxidation; assay: Lipid peroxidation (TBARS) in rat brain homogenate; type: biochemical; conditions: n=5, read-out: IC50 of inhibition of Fe2+-ascorbic acid-induced lipid peroxidation
Description: Antioxidant and peroxyl radical scavenging activities. Rat brain homogenate was made in 0.9% saline containing 10 mg tissue/ml. The rates of membrane lipid peroxidation were measured by the formation of thiobarbituric acid (TBA)-reactive substance (TBARS). Rat brain homogenates (1 ml) were incubated at 37° C. for 5 min with 10 μl of test compound or vehicle. Lipid peroxidation was initiated by the addition of 0.1 ml of 0.25 mM FeCl2 and 1 mM ascorbic acid (Huang Y C. et al., Drug. Dev. Res., 47:77–89, 1999). After 30 min of incubation, the reaction was stopped by adding 0.1 ml of 0.2% BHT. TBA reagent was then added and the mixture was heated for 30 min in a boiling water bath. TBARS was extracted by n-butanol and measured at 532 nm. The amount of TBARS was quantified using the linear regression obtained from malondialdehyde (MDA) standards.

[7] = biological target: T2, β1-adrenoceptor (Rattus norvegicus, UniProt P18090); assay: Isoprenaline-induced positive inotropic effect in electrically stimulated rat left atria; type: cell-based; conditions: 10^−8, 10^−7, 10^−6 M, isolated rat left atria
T2 construct: isoprenaline-induced concentration-response curves in isolated rat left atria; from tissue; host or cells: isolated rat left atria
T2 sequence (P18090 whole entry): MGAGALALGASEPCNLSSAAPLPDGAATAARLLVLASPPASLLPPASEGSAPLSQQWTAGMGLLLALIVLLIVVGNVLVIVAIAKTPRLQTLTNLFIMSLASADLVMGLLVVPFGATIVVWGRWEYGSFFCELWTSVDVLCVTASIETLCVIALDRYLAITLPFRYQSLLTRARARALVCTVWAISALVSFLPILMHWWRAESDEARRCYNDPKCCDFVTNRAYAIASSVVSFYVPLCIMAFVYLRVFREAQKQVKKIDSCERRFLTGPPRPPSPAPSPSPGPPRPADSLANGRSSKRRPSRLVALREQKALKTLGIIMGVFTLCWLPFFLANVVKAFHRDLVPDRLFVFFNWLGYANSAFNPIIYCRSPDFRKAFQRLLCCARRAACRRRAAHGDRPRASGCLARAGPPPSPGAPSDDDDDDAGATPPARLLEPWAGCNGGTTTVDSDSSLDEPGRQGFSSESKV
Description: Isolation of rat left atria. Rats of either sex weighing 350–500 g were sacrificed after mild anesthesia with ether, and their hearts were quickly excised. Left atria were dissected from the hearts and mounted in a 10 ml organ bath with one end fixed and the other end connected to a force displacement transducer (Grass, Model FT03). The experiments were carried out at 37° C. in a Krebs solution of the following composition (mM): NaCl 113, KCl 4.8, CaCl2 2.2, KH2PO4 1.2, MgCl2 1.2, NaHCO3 25, Dextrose 11.0; bubbled with a 95% O2+5% CO2 mixture. Atria were pre-stretched to a baseline tension of 0.5 g and equilibrated for 60 min in an aerated Krebs solution before starting experimental protocols. Atria were driven at 2-s intervals via two platinum electrodes on each side. An incubation time of 30 min was allowed for the test compound. Data were calculated as a percentage of the maximum contraction (Wu et al., 2001).

In the case of `CC=Cc1ccc(OCC(O)CN2CCN(c3ccccc3Cl)CC2)c(OC)c1` (stereo not drawn) [eugenosedin-A], the “LPS-induced increase in TNF-α” value ([1]; 3 hours after LPS 10 mg kg^−1 i.v., pretreatment (eugenosedin-A 1 mg kg^−1 i.v.)) is reported as “significantly inhibited”, the “LPS-induced increase in TNF-α” value ([1]; 5 hours after LPS 10 mg kg^−1 i.v., pretreatment) is reported as “significantly reduced” and the IC50 [2] is reported as 34300 nM. The Ki [3] was 1390 nM, the “order of α2 receptor binding potency” value [3] was “prazosin >eugenosedin-A >ketanserin >methylsergide >propranolol and 5-HT” and the “development of hypotension after LPS injection and normalization of BP” value ([4]; i.v. pretreatment) was “normalized BP within 5 hours”. For the same molecule, the “first immediate hypotensive phase after LPS” value ([4]; pretreatment 0.5 mg kg^−1 i.v.) was “not affected”, the “first immediate hypotensive phase after LPS” value ([4]; pretreatment 1 mg kg^−1 i.v.) was “attenuated it” and the “second prolonged hypotensive phase after LPS” value ([4]; pretreatment 0.5 and 1 mg kg^−1 i.v.) was “significantly reduced”. For the same molecule, the “cumulative clonidine-induced contractile activities” value [5] was “competitively inhibited”, the IC50 [6] was 2680 ± 50 nM and the “cumulative isoprenaline-induced positive inotropic effects” value [7] was “concentration-dependently inhibited”.
